Measured values: PubChem BioAssay (NCI)
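Test compounds were applied to cells in 96-well plates for 48 hours at 5 doses. Here, GI50 denotes the concentration required for 50% inhibition of growth. TGI: total growth inhibition.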

What was measured:
Assay in all cases: growth of human tumour cells (NCI), 48 h
[1] = tested on: A498 renal
[2] = tested on: CAKI-1 renal
[3] = tested on: EKVX NSCLC
[4] = tested on: IGROV1 ovarian
[5] = tested on: K-562 leukemia
[6] = tested on: MOLT-4 leukemia
[7] = tested on: SF-539 CNS
[8] = tested on: SK-OV-3 ovarian
[9] = tested on: SW-620 colon
[10] = tested on: UACC-257 melanoma

O=C1OCC2=C1C(c1cccc(Br)c1)c1cc3c(cc1N2CCO)CCC3 (configuration not stated)
GI50 [1]: 0.0155 µM
TGI [1]: 0.199 µM
GI50 [2]: 0.22 µM
TGI [2]: 8.15 µM
GI50 [3]: 0.682 µM
TGI [3]: 19.5 µM
GI50 [4]: 0.157 µM
TGI [4]: 10.7 µM
GI50 [5]: 0.11 µM
TGI [5]: 7.9 µM
GI50 [6]: 0.262 µM
TGI [6]: 14.2 µM
GI50 [7]: 0.0801 µM
TGI [7]: 5.46 µM
GI50 [8]: 0.102 µM
TGI [8]: 1.58 µM
GI50 [9]: 0.0583 µM
TGI [9]: 8.47 µM
GI50 [10]: 0.0235 µM
TGI [10]: 8.12 µM

O=C(CCc1n[nH]c(=S)o1)Nc1ccccc1C(F)(F)F
TGI [1]: > 100 µM
TGI [2]: > 100 µM
TGI [3]: > 100 µM
TGI [4]: > 100 µM
TGI [5]: > 100 µM
TGI [6]: > 100 µM
TGI [7]: > 100 µM
TGI [8]: > 100 µM
TGI [9]: 49 µM
TGI [10]: > 100 µM

COc1cccc(C2=NC(C(C)C)CO2)c1 (configuration not stated)
TGI [1]: > 100 µM
TGI [2]: > 100 µM
TGI [3]: > 100 µM
TGI [4]: > 100 µM
TGI [5]: > 100 µM
TGI [6]: > 100 µM
TGI [7]: > 100 µM
TGI [8]: > 100 µM
TGI [9]: > 100 µM
TGI [10]: > 100 µM

CS(=O)(=O)CCNCc1nc(-c2ccc3ncnc(Nc4ccc(OCc5cccc(C(F)(F)F)c5)cc4)c3c2)cs1
GI50 [1]: 4.1 µM
TGI [1]: > 25 µM
GI50 [2]: > 25 µM
TGI [2]: > 25 µM
GI50 [3]: > 20.4 µM
TGI [3]: > 25 µM
GI50 [4]: 5.4 µM
TGI [4]: > 25 µM
GI50 [5]: > 25 µM
TGI [5]: > 25 µM
GI50 [6]: > 25 µM
TGI [6]: > 25 µM
GI50 [7]: > 25 µM
TGI [7]: > 25 µM
GI50 [8]: 6.01 µM
TGI [8]: > 21.6 µM
GI50 [9]: > 25 µM
TGI [9]: > 25 µM
GI50 [10]: > 25 µM
TGI [10]: > 25 µM

COc1ccc(/C=C2/N=C(c3ccccc3)N(c3c(C)n(C)n(-c4ccccc4)c3=O)C2=O)cc1OC
GI50 [1]: > 100 µM
TGI [1]: > 100 µM
GI50 [2]: 37.1 µM
TGI [2]: > 100 µM
GI50 [3]: > 100 µM
TGI [3]: > 100 µM
GI50 [4]: > 100 µM
TGI [4]: > 100 µM
GI50 [5]: > 100 µM
TGI [5]: > 100 µM
GI50 [6]: 78.3 µM
TGI [6]: > 100 µM
GI50 [7]: > 100 µM
TGI [7]: > 100 µM
GI50 [8]: > 100 µM
TGI [8]: > 100 µM
GI50 [9]: > 100 µM
TGI [9]: > 100 µM
GI50 [10]: > 100 µM
TGI [10]: > 100 µM

COc1cc2c(cc1OCCCNC(=O)c1cccc3c(=O)c4ccccc4[nH]c13)N=C[C@@H]1CCCN1C2=O
GI50 [1]: < 0.01 µM
TGI [1]: 0.0225 µM
GI50 [2]: 0.116 µM
TGI [2]: 0.571 µM
GI50 [3]: 0.0166 µM
TGI [3]: 0.14 µM
TGI [4]: > 33.5 µM
TGI [5]: > 100 µM
GI50 [6]: 4.03 µM
TGI [6]: > 100 µM
GI50 [7]: < 0.01 µM
TGI [7]: < 0.01 µM
GI50 [8]: 5.58 µM
TGI [8]: > 100 µM
GI50 [9]: < 0.01 µM
TGI [9]: 23.6 µM
GI50 [10]: < 0.01 µM
TGI [10]: 0.759 µM

CCOc1ccc(NC(=O)C(=O)CC(=O)c2c(C)n([O-])c3ccccc3[n+]2=O)cc1
TGI [1]: > 100 µM
TGI [2]: > 100 µM
TGI [3]: > 100 µM
TGI [4]: > 100 µM
TGI [5]: > 100 µM
TGI [6]: > 100 µM
TGI [7]: > 100 µM
TGI [8]: > 100 µM
TGI [9]: > 100 µM
TGI [10]: > 100 µM

CN(C)C(n1cc2c(c1)-c1ccc(Cl)cc1C(c1ccccc1F)=NC2)n1cc2c(c1)-c1ccc(Cl)cc1C(c1ccccc1F)=NC2
TGI [1]: > 100 µM
TGI [2]: > 100 µM
TGI [3]: > 100 µM
TGI [4]: > 100 µM
TGI [5]: > 100 µM
TGI [6]: > 100 µM
TGI [7]: > 100 µM
TGI [8]: > 100 µM
TGI [9]: > 100 µM
TGI [10]: > 100 µM

Cc1ncc(C(=O)Nc2ccc(CN3CCN(C)CC3)c(C(F)(F)F)c2)cc1C#Cc1cnc(N)c2ccncc12
GI50 [1]: 1.35 µM
TGI [1]: 2.92 µM
GI50 [2]: 1.11 µM
TGI [2]: 2.66 µM
GI50 [3]: 1.14 µM
TGI [3]: 3.38 µM
GI50 [4]: 0.152 µM
TGI [4]: 1.42 µM
TGI [5]: 4.48 µM
GI50 [6]: 0.389 µM
TGI [6]: 4.62 µM
GI50 [7]: 0.548 µM
TGI [7]: 1.79 µM
GI50 [8]: 2.79 µM
TGI [8]: 7.13 µM
GI50 [9]: 1.49 µM
TGI [9]: 3.3 µM
GI50 [10]: 1.64 µM
TGI [10]: 3.33 µM

CN1C(=O)N(C)C2C1NN=c1s/c(=C\c3ccc(Cl)cc3Cl)c(=O)n12 (configuration not stated)
GI50 [1]: 0.067 µM
TGI [1]: 0.653 µM
GI50 [2]: 0.0608 µM
TGI [2]: > 62.3 µM
GI50 [3]: 0.425 µM
TGI [3]: > 100 µM
GI50 [4]: 0.326 µM
TGI [4]: > 50.1 µM
GI50 [5]: 0.0473 µM
TGI [5]: > 50.7 µM
GI50 [6]: 0.363 µM
TGI [6]: > 100 µM
GI50 [7]: 0.131 µM
TGI [7]: 3.25 µM
GI50 [8]: 0.754 µM
TGI [8]: > 100 µM
GI50 [9]: 0.109 µM
TGI [9]: > 100 µM
GI50 [10]: 12.2 µM
TGI [10]: > 100 µM

CC(=O)Oc1c2c(c(O)c3ccccc13)C(n1cnc3c(ncn3C3OC(CO)C4OC(C)(C)OC43)c1=N)CCC2 (configuration not stated)
TGI [1]: 33.3 µM
TGI [2]: 50.1 µM
TGI [3]: 36.9 µM
TGI [4]: 40.9 µM
TGI [5]: 30 µM
TGI [6]: 35.9 µM
TGI [7]: 32.2 µM
TGI [8]: 33.1 µM
TGI [9]: 29.6 µM
TGI [10]: 21.8 µM
